Source: article PMC9481151, “Discovery of new symmetrical and asymmetrical nitrile-containing 1,4-dihydropyridine derivatives as dual kinases and P-glycoprotein inhibitors: synthesis, in vitro assays, and in silico studies” (Journal of Enzyme Inhibition and Medicinal Chemistry, 2022)

What was measured:
SR = assay: NCI single dose (10 µM) SRB screen; format: cell-based, human; details: leukaemia, 48 h
Escherichia coli = assay: Agar well diffusion method; details: for % activity index, E. coli: relative to ciprofloxacin; for zone of inhibition at 1000 µg/mL: Escherichia coli, 24 h, read-out: Diameter of inhibition zone, E. coli
NCI-H522 = assay: NCI single dose (10 µM) SRB screen; format: cell-based, human; details: non-small cell lung cancer, 48 h
MCF7 = assay: NCI single dose (10 µM) SRB screen; format: cell-based, human; details: breast cancer, 48 h
SK-MEL-28 = assay: NCI single dose (10 µM) SRB screen; format: cell-based, human; details: melanoma, 48 h
KM12 = assay: NCI single dose (10 µM) SRB screen; format: cell-based, human; details: colon cancer, 48 h
NCI-H226 = assay: NCI single dose (10 µM) SRB screen; format: cell-based, human; details: non-small cell lung cancer, 48 h
HOP-62 = assay: NCI single dose (10 µM) SRB screen; format: cell-based, human; details: non-small cell lung cancer, 48 h
Pseudomonas aeruginosa = assay: Agar well diffusion method; details: for zone of inhibition at 1000 µg/mL: Pseudomonas aeruginosa, 24 h, read-out: Diameter of inhibition zone, P. aeruginosa; for % activity index, P. aeruginosa: relative to ciprofloxacin
SK-MEL-5 = assay: NCI single dose (10 µM) SRB screen; format: cell-based, human; details: melanoma, 48 h
Bacillus subtilis = assay: Agar well diffusion method; details: for zone of inhibition at 1000 µg/mL: Bacillus subtilis, 24 h, read-out: Diameter of inhibition zone, B. subtilis; for % activity index, B. subtilis: relative to ciprofloxacin
SW-620 = assay: NCI single dose (10 µM) SRB screen; format: cell-based, human; details: colon cancer, 48 h
UACC-62 = assay: NCI single dose (10 µM) SRB screen; format: cell-based, human; details: melanoma, 48 h
DU-145 = assay: NCI single dose (10 µM) SRB screen; format: cell-based, human; details: prostate cancer, 48 h

SMILES	melting point [°C]	GI% SR (SR)	% activity index, E. coli (Escherichia coli)	GI% NCI-H522 (NCI-H522)	GI% MCF7 (MCF7)	GI% SK-MEL-28 (SK-MEL-28)	GI% KM12 (KM12)	GI% NCI-H226 (NCI-H226)	GI% HOP-62 (HOP-62)	zone of inhibition at 1000 µg/mL (Pseudomonas aeruginosa) [mm]	% activity index, P. aeruginosa (Pseudomonas aeruginosa) [%]	GI% SK-MEL-5 (SK-MEL-5)	zone of inhibition at 1000 µg/mL (Bacillus subtilis) [mm]	% activity index, B. subtilis (Bacillus subtilis)	GI% SW-620 (SW-620)	GI% UACC-62 (UACC-62)	GI% DU-145 (DU-145)	zone of inhibition at 1000 µg/mL (Escherichia coli) [mm]
CCOC(=O)C1=C(C)NC(C)=C(C(=O)OCC)C1c1cccc(C#N)c1 [Compound 1b, Diethyl 4-(3-cyanophenyl)-2,6-dimethyl-1,4-dihydropyridine-3,5-dicarboxylate]	144 to 146	48%	26.9%	12%	15%	– (Only GI% ≥ 10 are shown)	27%	– (Only GI% ≥ 10 are shown)	– (Only GI% ≥ 10 are shown)	10	43.5	– (Only GI% ≥ 10 are shown)	9	39.1%	– (Only GI% ≥ 10 are shown)	20%	– (Only GI% ≥ 10 are shown)	7
CC1=C(C(=O)OC(C)C)C(c2cccc(C#N)c2)C(C(=O)OC(C)C)=C(C)N1 [Compound 1c, Diisopropyl 4-(3-cyanophenyl)-2,6-dimethyl-1,4-dihydropyridine-3,5-dicarboxylate]	124 to 125	18%	– (Values below 25 are of limited value and not shown as they refer either to inactive or non-diffusing compounds)	11%	11%	– (Only GI% ≥ 10 are shown)	– (Only GI% ≥ 10 are shown)	– (Only GI% ≥ 10 are shown)	– (Only GI% ≥ 10 are shown)	8	34.8	– (Only GI% ≥ 10 are shown)	6	26.1%	– (Only GI% ≥ 10 are shown)	14%	– (Only GI% ≥ 10 are shown)	–
COC(=O)C1=C(C)NC(C)=C(C(=O)OC)C1c1cccc(C#N)c1 [Compound 1a, Dimethyl 4-(3-cyanophenyl)-2,6-dimethyl-1,4-dihydropyridine-3,5-dicarboxylate]	200 to 202	– (Only GI% ≥ 10 are shown)	30.8%	– (Only GI% ≥ 10 are shown)	– (Only GI% ≥ 10 are shown)	– (Only GI% ≥ 10 are shown)	– (Only GI% ≥ 10 are shown)	– (Only GI% ≥ 10 are shown)	– (Only GI% ≥ 10 are shown)	12	52.2	– (Only GI% ≥ 10 are shown)	9	39.1%	– (Only GI% ≥ 10 are shown)	– (Only GI% ≥ 10 are shown)	– (Only GI% ≥ 10 are shown)	8

Continued, in another order:

melting point [°C]	SMILES	GI% SR (SR)	% activity index, E. coli (Escherichia coli)	GI% NCI-H522 (NCI-H522)	GI% MCF7 (MCF7)	GI% SK-MEL-28 (SK-MEL-28)	GI% KM12 (KM12)	GI% NCI-H226 (NCI-H226)	GI% HOP-62 (HOP-62)	zone of inhibition at 1000 µg/mL (Pseudomonas aeruginosa) [mm]	% activity index, P. aeruginosa (Pseudomonas aeruginosa) [%]	GI% SK-MEL-5 (SK-MEL-5)	zone of inhibition at 1000 µg/mL (Bacillus subtilis) [mm]	% activity index, B. subtilis (Bacillus subtilis)	GI% SW-620 (SW-620)	GI% UACC-62 (UACC-62)	GI% DU-145 (DU-145)	zone of inhibition at 1000 µg/mL (Escherichia coli) [mm]
136 to 138	CCOC(=O)C1=C(C)NC(C)=C(C(=O)OC(C)C)C1c1cccc(C#N)c1 (racemic) [Compound 2h, (±)-3-Ethyl 5-isopropyl 4-(3-cyanophenyl)-2,6-dimethyl-1,4-dihydropyridine-3,5-dicarboxylate]	– (Only GI% ≥ 10 are shown)	– (Values below 25 are of limited value and not shown as they refer either to inactive or non-diffusing compounds)	– (Only GI% ≥ 10 are shown)	– (Only GI% ≥ 10 are shown)	– (Only GI% ≥ 10 are shown)	– (Only GI% ≥ 10 are shown)	– (Only GI% ≥ 10 are shown)	– (Only GI% ≥ 10 are shown)	10	43.5	– (Only GI% ≥ 10 are shown)	8	34.8%	– (Only GI% ≥ 10 are shown)	– (Only GI% ≥ 10 are shown)	– (Only GI% ≥ 10 are shown)	–
133 to 135	COC(=O)C1=C(C)NC(C)=C(C(=O)OCC(C)C)C1c1cccc(C#N)c1 (racemic) [Compound 2b, (±)-3-Isobutyl 5-methyl 4-(3-cyanophenyl)-2,6-dimethyl-1,4-dihydropyridine-3,5-dicarboxylate]	29%	34.6%	15%	15%	– (Only GI% ≥ 10 are shown)	– (Only GI% ≥ 10 are shown)	10%	– (Only GI% ≥ 10 are shown)	13	56.5	– (Only GI% ≥ 10 are shown)	–	– (Values below 25 are of limited value and not shown as they refer either to inactive or non-diffusing compounds)	– (Only GI% ≥ 10 are shown)	21%	– (Only GI% ≥ 10 are shown)	9
